Results from article PMC5537602, “TRPA1 channel mediates organophosphate-induced delayed neuropathy” (Cell Discovery, 2017).

Legend:
TRPV3 = molecular target: T1, TRPV3 (Homo sapiens, UniProt Q8NET8); test: Calcium fluorescence signal, HEK293 cells overexpressing TRPV3; type: cell-based; conditions: 10 μM
T1 construct: expressed in transfected cells; host or cells: HEK293
T1 sequence (Q8NET8 1-790): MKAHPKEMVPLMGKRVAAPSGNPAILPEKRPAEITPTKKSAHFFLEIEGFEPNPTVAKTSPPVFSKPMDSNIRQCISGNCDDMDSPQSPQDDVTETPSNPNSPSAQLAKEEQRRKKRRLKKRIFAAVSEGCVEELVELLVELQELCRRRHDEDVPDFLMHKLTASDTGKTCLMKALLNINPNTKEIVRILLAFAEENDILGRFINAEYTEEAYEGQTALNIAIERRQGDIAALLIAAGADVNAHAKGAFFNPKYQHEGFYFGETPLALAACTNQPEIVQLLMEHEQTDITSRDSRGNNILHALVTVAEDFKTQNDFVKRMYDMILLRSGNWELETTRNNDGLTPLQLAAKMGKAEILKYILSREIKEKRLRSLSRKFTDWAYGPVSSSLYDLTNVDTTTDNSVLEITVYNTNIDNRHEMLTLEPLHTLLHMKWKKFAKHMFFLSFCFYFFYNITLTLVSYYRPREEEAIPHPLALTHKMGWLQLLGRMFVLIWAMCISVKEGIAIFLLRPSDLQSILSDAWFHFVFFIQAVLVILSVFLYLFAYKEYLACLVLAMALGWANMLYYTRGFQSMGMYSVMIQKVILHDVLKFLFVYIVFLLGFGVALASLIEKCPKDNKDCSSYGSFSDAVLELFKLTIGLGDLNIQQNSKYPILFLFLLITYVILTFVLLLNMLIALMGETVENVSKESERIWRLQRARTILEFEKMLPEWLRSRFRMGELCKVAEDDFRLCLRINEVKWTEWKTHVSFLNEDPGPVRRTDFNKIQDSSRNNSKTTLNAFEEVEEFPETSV
Experimental: Figure S3. Specificity of malathion for TRPA1 channels. (A-F) Time course of the fluorescence signal induced by malathion (Mala, 10 μM) and the indicated positive agonists (10 μM) in HEK293 cells overexpressing TRPV1 (A), TRPV3 (B), TRPV4 (C), TRPM8 (D), TRPC4 (E) and TRPC5 (F) channels. The fluorescence signals are scaled as F/F0. EC indicates external solution. […]
cells for each tested TRP channel. All bars are presented as the mean ± SEM. […]

[1] = tested on: hTRPA1 carrying single mutations (C414A, C421A, C621A, C641A, C665A or K710R); test: Whole-cell patch-clamp of mutant hTRPA1 channels; type: cell-based, human; conditions: 30 μM malathion
Experimental: Human embryonic kidney 293 (HEK293) cells were cultured in DMEM containing 10% (vol/vol) heat-inactivated fetal bovine serum, 100 units ml^−1 penicillin–streptomycin and 2 mM L-glutamine at 37 °C in a humidity-controlled sterile incubator with 5% CO2. All cell culture reagents were purchased from Life Technologies. HEK293 cells were transfected transiently with the corresponding plasmids using lipofectamine 2000 (Life Technologies). Transfection efficiency was monitored by co-transfecting EGFP plasmid which codes for the enhanced green fluorescent protein. Electrophysiological recordings were performed between 24 and 36 h after transfection.
Whole-cell patch-clamp recordings in DRG neurons (small diameter, […]) and HEK293 cells were operated at room temperature (23–25 °C) using EPC-10 amplifier and Patch Master Software (HEKA). […] Currents were sampled at 10 kHz and low-pass filtered at 2.9 kHz. The internal solution was as follows (in mM): 140 CsCl, 10 HEPES, 5 EGTA, 0.1 CaCl2 and 1 MgCl2, with pH adjusted to 7.2 by CsOH and osmolarity 295–300 mOsm. […] TRPA1 currents development was monitored with repetitive injections of 300 ms duration voltage ramps from −100 to +100 mV every 2 s and the holding potential was set to 0 mV for 50 ms, existing in both sides of the voltage ramp. […]

## CCOC(=O)CC(SP(=S)(OC)OC)C(=O)OCC (stereo not drawn) [malathion, S-[1,2-bis (ethoxycarbonyl)ethyl] O, O-dimethyl phosphorodithioate]
TRPV3
  activation of TRPV3: could not activate
[1]
  response of mutant hTRPA1 compared to WT channels: significantly reduced
